According to patent US11440905B2, “Biheterocyclic compound” (SUMITOMO PHARMA CO., LTD., priority 2016, dated 2022):
Structures can show the parent of a compound that is named as a salt.

Molecular target: T1, mouse semaphorin 3A (Sema3A) (Mus musculus, UniProt O08665)
T1 sequence (O08665 21-772): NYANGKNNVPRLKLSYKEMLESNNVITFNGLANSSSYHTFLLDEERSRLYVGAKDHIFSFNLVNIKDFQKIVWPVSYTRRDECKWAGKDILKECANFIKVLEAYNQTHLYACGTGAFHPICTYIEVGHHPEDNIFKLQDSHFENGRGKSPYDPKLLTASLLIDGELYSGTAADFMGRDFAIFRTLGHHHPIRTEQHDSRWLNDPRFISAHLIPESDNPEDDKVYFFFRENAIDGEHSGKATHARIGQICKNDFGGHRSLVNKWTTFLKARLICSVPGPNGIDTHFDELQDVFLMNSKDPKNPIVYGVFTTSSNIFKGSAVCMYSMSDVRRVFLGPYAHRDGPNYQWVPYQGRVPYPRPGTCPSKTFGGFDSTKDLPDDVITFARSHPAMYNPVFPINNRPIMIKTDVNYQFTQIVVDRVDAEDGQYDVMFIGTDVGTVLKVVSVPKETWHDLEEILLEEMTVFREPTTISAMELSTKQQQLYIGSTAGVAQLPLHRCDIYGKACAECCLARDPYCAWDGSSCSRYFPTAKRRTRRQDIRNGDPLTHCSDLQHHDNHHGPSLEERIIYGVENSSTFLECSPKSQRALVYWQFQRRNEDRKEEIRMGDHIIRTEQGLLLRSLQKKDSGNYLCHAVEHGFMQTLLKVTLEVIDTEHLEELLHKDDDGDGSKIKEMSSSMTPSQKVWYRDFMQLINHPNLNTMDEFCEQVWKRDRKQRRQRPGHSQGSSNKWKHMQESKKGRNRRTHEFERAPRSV
Experiment: Inhibitory activity for the collapse activity caused by Sema3A (growth cone collapse assay, Test 1)
Format: cell-based
Settings: chick embryo dorsal root ganglion, 3 units/mL mouse Sema3A, smaller value = more potent inhibition, read-out: residual ratio (%) of Sema3A activity (collapse assay); for remaining activity at 3 µM: 3 μM test compound; for remaining activity at 10 µM: 10 μM test compound; for remaining activity at 1 µM: 1 μM test compound
Method: Inhibitory Activity for the Collapse Activity Caused by Sema3A
96 well-plate (SUMITOMO BAKELITE CO., LTD.) which was beforehand coated with polylysine was further coated with laminin (10 μL laminin, at room temperature, for 1 hour). To each well was added 100 μL of a medium (F12 medium containing 10% fetal bovine serum, 20 ng/mL NGF, 100 unit/mL penicillin, and 100 μg/mL streptomycin). Dorsal root ganglion harvested from 7-8 day-old chick embryo was inoculated thereto, and the culture medium was cultivated under the condition of 5% CO2 and 37° C. for 16-20 hours. And then, each test compound in various concentrations was added to the medium, each test medium was cultivated for 30 minutes, 3 units/mL mouse semaphorin 3A (Sema3A) was added to each medium, and then each test medium was cultivated for more 30 minutes. Then, glutaraldehyde was added to the medium, in which the final concentration of glutaraldehyde was 1%. The medium was left to stand at room temperature for 15 minutes to make the tissue fragment fixed, and the ratio of the retracted growth cone was measured under a microscope.

remaining activity at 3 µM [%] | remaining activity at 10 µM [%] | remaining activity at 1 µM [%] | Compound
21 | – | 27.3 | Cc1c(-c2coc3cc(O)c(O)c(C(=O)OCc4cn(CC(=O)N[C@@H](CCC(=O)O)C(=O)O)nn4)c3c2=O)c(=O)c2cc(O)c(O)cc2n1C [Example 8, N-({4-[({[3-(6,7-Dihydroxy-1,2-dimethyl-4-oxo-1,4-dihydroquinolin-3-yl)-6,7-dihydroxy-4-oxo-4H-chromen-5-yl]carbonyl}oxy)methyl]-1H-1,2,3-triazol-1-yl}acetyl)-L-glutamic acid]
– | – | 65.5 | N=C(N)NCCC[C@H](NC(=O)Cn1cc(COC(=O)c2c(O)c(O)cc3occ(-c4cc5cc(O)c(O)cc5oc4=O)c(=O)c23)nn1)C(=O)O [Example 12, N^2-{[4-({[(6,6′,7,7′-Tetrahydroxy-2,4′-dioxo-2H,4′H-3,3′-bichromen-5′-yl)carbonyl]oxy}methyl)-1H-1,2,3-triazol-1-yl]acetyl}-L-arginine trifluoroacetate]
– | – | 6 | Cn1cc(-c2coc3cc(O)c(O)c(C(=O)OCc4cn(CC(=O)N[C@@H](CCCNC(=N)N)C(=O)O)nn4)c3c2=O)c(=O)c2cc(O)c(O)cc21 [Example 4, N^2-({4-[({[3-(6,7-Dihydroxy-1-methyl-4-oxo-1,4-dihydroquinolin-3-yl)-6,7-dihydroxy-4-oxo-4H-chromen-5-yl]carbonyl}oxy)methyl]-1H-1,2,3-triazol-1-yl}acetyl)-L-arginine trifluoroacetate]
– | – | 7.9 | O=C(O)CC[C@H](NC(=O)Cn1cc(COC(=O)c2c(O)c(O)cc3occ(-c4cc5cc(O)c(O)cc5oc4=O)c(=O)c23)nn1)C(=O)O [Example 11, N-{[4-({[(6,6′,7,7′-Tetrahydroxy-2,4′-dioxo-2H,4′H-3,3′-bichromen-5′-yl)carbonyl]oxy}methyl)-1H-1,2,3-triazol-1-yl]acetyl}-L-glutamic acid]
6.1 | – | 78.8 | Cn1c(=O)c(-c2coc3cc(O)c(O)c(C(=O)OCc4cn(CC(=O)N[C@@H](CCC(=O)O)C(=O)O)nn4)c3c2=O)cc2cc(O)c(O)cc21 [Example 14, N-({4-[({[3-(6,7-Dihydroxy-1-methyl-2-oxo-1,2-dihydroquinolin-3-yl)-6,7-dihydroxy-4-oxo-4H-chromen-5-yl]carbonyl}oxy)methyl]-1H-1,2,3-triazol-1-yl}acetyl)-L-glutamic acid]
0 | – | 5.4 | Cc1c(-c2coc3cc(O)c(O)c(C(=O)OCc4cn(CC(=O)N[C@@H](CCC(=O)O)C(=O)O)nn4)c3c2=O)c(=O)n(C)c2cc(O)c(O)cc12 [Example 15, N-({4-[({[3-(6,7-Dihydroxy-1,4-dimethyl-2-oxo-1,2-dihydroquinolin-3-yl)-6,7-dihydroxy-4-oxo-4H-chromen-5-yl]carbonyl}oxy)methyl]-1H-1,2,3-triazol-1-yl}acetyl)-L-glutamic acid]
3.3 | – | 90.1 | Cc1nc2cc(O)c(O)cn2c(=O)c1-c1coc2cc(O)c(O)c(C(=O)OCc3cn(CC(=O)N[C@@H](CCC(=O)O)C(=O)O)nn3)c2c1=O [Example 17, N-({4-[({[3-(7,8-Dihydroxy-2-methyl-4-oxo-4H-pyrido[1,2-a]pyrimidin-3-yl)-6,7-dihydroxy-4-oxo-4H-chromen-5-yl]carbonyl}oxy)methyl]-1H-1,2,3-triazol-1-yl}acetyl)-L-glutamic acid]

Continued, compound first:

Compound | remaining activity at 3 µM [%] | remaining activity at 10 µM [%] | remaining activity at 1 µM [%]
Cc1c(-c2coc3cc(O)c(O)c(C(=O)O)c3c2=O)c(=O)c2cc(O)c(O)cc2n1C [Example 7, 3-(6,7-Dihydroxy-1,2-dimethyl-4-oxo-1,4-dihydroquinolin-3-yl)-6,7-dihydroxy-4-oxo-4H-chromene-5-carboxylic acid] | < 70 | < 40 | –
Cn1cc(-c2coc3cc(O)c(O)c(C(=O)N[C@@H](CCC(=O)O)C(=O)O)c3c2=O)c(=O)c2cc(O)c(O)cc21 [Example 5, N-{[3-(6,7-Dihydroxy-1-methyl-4-oxo-1,4-dihydroquinolin-3-yl)-6,7-dihydroxy-4-oxo-4H-chromen-5-yl]carbonyl}-L-glutamic acid] | 3.3 | – | 5.1
O=C(O)c1c(O)c(O)cc2occ(-c3cc4cc(O)c(O)cc4oc3=O)c(=O)c12 [Example 9, 6,6′,7,7′-Tetrahydroxy-2,4′-dioxo-2H,4′H-3,3′-bichromene-5′-carboxylic acid] | 7.3 | – | 3.4
Cn1cc(-c2coc3cc(O)c(O)c(C(=O)OCC[C@H](N)C(=O)O)c3c2=O)c(=O)c2cc(O)c(O)cc21 [Example 27, O-{[3-(6,7-Dihydroxy-1-methyl-4-oxo-1,4-dihydroquinolin-3-yl)-6,7-dihydroxy-4-oxo-4H-chromen-5-yl]carbonyl}-L-homoserine hydrochloride] | < 10 | – | < 10
Cn1cc(-c2coc3cc(O)c(O)c(C(=O)OCC(N)=O)c3c2=O)c(=O)c2cc(O)c(O)cc21 [Example 30, 2-Amino-2-oxoethyl 3-(6,7-dihydroxy-1-methyl-4-oxo-1,4-dihydroquinolin-3-yl)-6,7-dihydroxy-4-oxo-4H-chromene-5-carboxylate] | < 40 | – | –
Cn1cc(-c2coc3cc(O)c(O)c(C(=O)OC[C@H]4CC[C@H](N)CC4)c3c2=O)c(=O)c2cc(O)c(O)cc21 [Example 24, (trans-4-Aminocyclohexyl)methyl 3-(6,7-dihydroxy-1-methyl-4-oxo-1,4-dihydroquinolin-3-yl)-6,7-dihydroxy-4-oxo-4H-chromene-5-carboxylate hydrochloride] | < 10 | – | < 70
Cn1cc(-c2coc3cc(O)c(O)c(C(=O)O)c3c2=O)c(=O)c2cc(O)c(O)cc21 [Example 1, 3-(6,7-Dihydroxy-1-methyl-4-oxo-1,4-dihydroquinolin-3-yl)-6,7-dihydroxy-4-oxo-4H-chromene-5-carboxylic acid] | 4.6 | – | 2
Cc1nc2cc(O)c(O)cn2c(=O)c1-c1coc2cc(O)c(O)c(C(=O)O)c2c1=O [Example 16, 3-(7,8-Dihydroxy-2-methyl-4-oxo-4H-pyrido[1,2-a]pyrimidin-3-yl)-6,7-dihydroxy-4-oxo-4H-chromene-5-carboxylic acid] | 2.2 | – | 15.9
Cn1cc(-c2coc3cc(O)c(O)c(C(=O)OCC(O)CO)c3c2=O)c(=O)c2cc(O)c(O)cc21 (stereo not shown) [Example 23, 2,3-Dihydroxypropyl 3-(6,7-dihydroxy-1-methyl-4-oxo-1,4-dihydroquinolin-3-yl)-6,7-dihydroxy-4-oxo-4H-chromene-5-carboxylate] | < 10 | – | < 70
Cc1nc2cc(O)c(O)cn2c(=O)c1-c1coc2cc(O)c(O)c(C(=O)OCC(=O)N[C@@H](CCC(=O)O)C(=O)O)c2c1=O [Example 18, N-[({[3-(7,8-Dihydroxy-2-methyl-4-oxo-4H-pyrido[1,2-a]pyrimidin-3-yl)-6,7-dihydroxy-4-oxo-4H-chromen-5-yl]carbonyl}oxy)acetyl]-L-glutamic acid] | 6.7 | – | 21.8
Cn1c(=O)c(-c2coc3cc(O)c(O)c(C(=O)O)c3c2=O)cc2cc(O)c(O)cc21 [Example 13, 3-(6,7-Dihydroxy-1-methyl-2-oxo-1,2-dihydroquinolin-3-yl)-6,7-dihydroxy-4-oxo-4H-chromene-5-carboxylic acid] | – | < 70 | –
